Reference: US20160000750A1, “COMBINATION OF EGCG OR METHYLATED EGCG AND A PDE INHIBITOR” (KYUSHU UNIVERSITY, NATIONAL UNIVERSITY CORPORATION, priority 2010, published 2016)

What was measured:
[1] = tested on: Toll-like receptor (TLR) 2; experiment: TLR2 expression in RAW 264.7 by Western blotting; format: cell-based, mouse; conditions: vardenafil 5 μM, EGCG 10 μM added after 3 hours, 24 hours, untreated = 100
Experimental: A mouse macrophage cell line, RAW 264.7, was seeded in a 5-mL dish at 1×10^5 cells/mL and was pre-cultured in a DMEM medium supplemented with 1% FCS for 24 hours. Subsequently, vardenafil was added thereto at a concentration of 5 μM. After 3 hours, EGCG was added thereto at a concentration of 0 μM or 10 μM. After 24 hours, the cells were collected, and the expressions of Toll-like receptor (TLR) 2 and TLR 4 were measured by Western blotting.

[2] = tested on: human multiple myeloma cell line, U266; experiment: Involvement of 67LR (anti-67LR antibody MLuc5) in cell-killing and cytostatic activity, U266; format: cell-based; conditions: U266, 96-well; vardenafil 5 μM, EGCG 5 μM; 96 hours; without anti-67LR antibody (isotype control mouse IgM)
Experimental: A trypan blue staining solution was prepared by suspending trypan blue in PBS at a concentration of 1% and was used in investigation of the anti-cancer activity of a combination of EGCG and vardenafil by trypan blue assay. The PBS used was prepared by dissolving 8.0 g of NaCl, 0.2 g of KCl, 1.15 g of Na2HPO4, and 0.2 g of KH2PO4 in 1 L of ultrapure water, followed by autoclave sterilization.
A human multiple myeloma cell line, U266, and a human acute myeloid leukemia cell line, HL60, adjusted to be 5×10^4 cells/mL (U266) and 1×10^4 cells/mL (HL60), respectively, in an RPMI 1640 medium supplemented with 1% FCS were seeded in a 96-well plate (Falcon Co., Ltd.). Vardenafil was added thereto at a final concentration of 5 μM. Immediately after the addition, an anti-67LR monoclonal antibody, MLuc5 (Abcam PLC), was added thereto at a final concentration of 20 μg/mL. In the group of adding an isotype control antibody, mouse IgM (Cosmo Bio Co., Ltd., Tokyo) was added at a final concentration of 20 μg/mL. […]
The plate was returned to the incubator immediately after the addition of EGCG, followed by culturing for 96 hours. […] After 10 minutes, the number of the cells was counted with a hemocytometer. Unstained cells were deemed as viable cells, and the cell viability was determined as a ratio of the number of unstained cells in trypan blue staining to the total number of cells. […]

[3] = tested on: mouse plasmacytoma cell line, MPC11, transplanted to Balb/c mice; experiment: Tumor formation of MPC11 transplanted to Balb/c mice; format: in vivo; conditions: MPC11 s.c., EGCG 15 mg/kg i.p., vardenafil 5 mg/kg i.p., once every two days from day 4
Experimental: Furthermore, 5-week old female balb/c mice were preliminarily bred for one week and were then inoculated with a mouse multiple myeloma cell line, MPC11, by subcutaneous injection, in the right back, of […] of a suspension of 5×10^7 cells/mL of the cells in an RPMI medium. After 4 days from the inoculation, EGCG (15 mg/kg i.p.) and vardenafil (5 mg/kg i.p.) were administered once every two days, and the tumor volume was measured with varnier clipers. In the graph, EGCG and VDN indicate single administration of EGCG and vardenafil, respectively, and EGCG/Vardenafil indicates combination administration of EGCG and vardenafil.

In the case of (−)-epigallocatechin-3-O-gallate [EGCG], the “TLR2 expression level(%)” value [1] is reported as 90%, the “cell viability (cell-killing activity)” value [2] is reported as “any cytotoxicity was not observed” and the “tumor formation (tumor volume)” value [3] is reported as “any inhibitory action on tumor formation of the mouse plasmacytoma cell line was not observed”.
